Laboratory results reported in US6677307B2, “TGF-α polypeptides, functional fragments and methods of use therefor” (Kaleidos Pharma, Inc., priority 1999, dated 2004).

Experiments:
[1] = tested on: mouse spleen; assay: in vivo model of general hematopoiesis with Cis Platinum (spleen weights, platelets, spleen histology)
Experimental: Hematopoietic and myeloid cells are red blood cell precursors, platelet precursors (megakaryocytes), and immune (white) blood cell precursors of various forms of T cells, B cells and macrophages. […] It should be noted that references to TGF-α as a human 50 amino acid polypeptide further include reference to human TGFα57 as an alternative variant.
(§1) The experiment procedure dosed those animals to be treated with TGFα 57 4 hours prior to challenge with CP. A single dose of CP was administered. Additional doses (as indicated) of TGFα 57 were made at 24 hours, 48 hours, 72 hours and 96 hours after the CP dose. All doses were made by IP injection. Controls were dosed with saline instead of either or both of CP and TGF-α57.
(§2) The animals were sacrificed about 4 hours after the last TGF-α57 (or saline) dose. Key organs were removed and spleens were immediately weighed after a clean incision. All the relevant organs were placed in formalin, transported for histopathological analysis, mounted, sectioned, stained and observed. The results of this histological analysis of the spleens for hematopoietic effect and the GI tract (below) provided surprising and unexpected data of the effect of TGF-α57 activity.
There was erythrocytes in the perifollicular zone surrounding both the T cell and B cell compartments of white pulp. […] The T cells stained for the T-cell receptor but were negative for CD4 and CD8 markers. Accordingly, the T-cells are double null T-cell progenitors induced by TGF-α administration.

[2] = tested on: mouse intestines; assay: histological examination of intestines of CP-treated mice; assay type: in vivo
Experimental: as §1, §2
TGFα or a peptide from formula I, formula II, formula III, formula IV, formula V, or formula VI having TGFα activity or combinations thereof are also useful for treating mucositis associated intestinal bleeding, dyspepsia caused by with cytotoxic therapy and for improving the barrier function of the GI tract compromised by cytotoxic therapy. The in vivo experiment with seven groups of mice described above for hematopoietic effects noted in spleens also examined the GI tract of these treated mice. […] A single row of intestinal crypt is found at the base of the mucosa. These crypts that lie between adjacent villi are surrounded by the same lamina propria that form the villous cores. Both columnar absorptive cells and goblet cells cover the villous surfaces. The goblet cells contain apical clear vacuoles. […] Specifically, the villus was long and slender. Both absorptive cells and goblet cells were visible at the surface of the villi, and there was an abundant amount of goblet cells on the surface.
A 160×magnification of the intestines of a CP-treated mouse, a normal mouse and a CP treated and TGFα57 treated mouse at the same doses as described above. […] The crypts were irregularly shaped and in had various heights. […] The crypts also appeared normal.
Red cells were visible at the damaged surface indicating intestinal bleeding. […] Globlet cells appeared interspersed, necrotic and fewer in number than normal. […] Specifically, the epithelial cells appeared normal with extended brush borders. The nuclei were very densely stained and elongated.
The histological data is summarized in FIG. 4 that measured average crypt height of the three groups of mice.
An alcian blue staining method permitted differentiation of absorptive cells and goblet cells. Goblet cell mucus is stained a blue color while the absorptive cells remain less stained. […] In the normal intestine each villus extended from the luminal surface to the basal muscularis mucosal surface. Goblet cells were scattered and predominated in the base of the villus whereas columnar absorptive cells lined the luminal surface. […] The injured absorptive and goblet cells were degenerating at the tip of the villi and abundant secretory mucus material was stained in the luminal surface. In the CP/TGF-α mouse, there were an increased number of goblet cells scattered throughout the villi. The intestinal villi appeared normal with elongation. […] The luminal plasma membranes of the villi were well protected by TGF-α treatment. The number of goblet cells was counted on the average unit length of intestine.

[3] = tested on: kidney; assay: glycerol acute kidney toxicity, blood BUN and creatinine; assay type: in vivo, CD-1 mice; settings: 50% glycerol 10 ml/kg im; 1 μg ip; two treatments
Experimental: In another set of in vivo experiments, glycerol (50% (v/v) aqueous solution, Sigma) was used as the cytotoxic agent for an acute cytotoxic agent. Six CD-1 mice were weighed and injected into both hind limbs im with 10 ml/kg of 50% (v/v) glycerol, one half into each hind limb im. Three of the mice were controls and injected with 0.1 ml of 0.9% saline and the other three injected ip with 0.1 ml of 10 μg/ml stock of TGF-α (57 aa polypeptide) as a 1 μg dose. The mice were reinjected with the same does of saline or TGFα the next day and another equal dose of 50% glycerol. After two treatments, the mice were sacrificed and blood BUN and creatinine was measured and the kidneys examined. The average creatinine values were 1.75±0.613 for controls and 1.51±0.940 for treated mice. The average BUN values were […] for controls and 165.3±75.6 for treated mice.

Substance: TGF-α57: 57 amino acid polypeptide of formula VI: Ser-Leu-Ser-Leu-Pro-Ala-Met-Human TGFα
- spleen weights ([1]; CP 5 mg/kg or 10 mg/kg, 10 μg/kg or 50 μg/kg IP, FIG. 3): return to normal spleen weights
- spleen histology (H&E) ([1]; CP 10 mg/kg and 50 μg/kg): increased number of T cells and erythrocytes in the perifollicular zone
- platelet counts ([1]; with CP, as opposed to CP alone): higher
- intestinal structure (cross section histology) ([2]; CP 10 mg/kg and 50 μg/kg): intestinal structure was very similar to the normal intestinal structure
- number of goblet cells on the average unit length of intestine (alcian blue) ([2]; CP 10 mg/kg and 50 μg/kg): increased the number from CP treatment to a higher level than normal intestine
- villa surface, higher magnification ([2]; CP 10 mg/kg and 50 μg/kg): protection of the villa surface
- villi and crypts, 160× magnification ([2]; CP 10 mg/kg and 50 μg/kg): normal appearing villi
- average crypt height ([2]; CP treatment, 50 μg/kg, FIG. 4): more-than-restore crypt height loss
- average BUN [3]: 165.3±75.6
- average creatinine [3]: 1.51±0.940
